These results are taken from patent EP4168403B1 (priority 2020, dated 2021).

Several values for one entry are separate records, joined by “and”; a condition that tells them apart may be missing. Identical values can stand only once. Like-named read-outs stand apart in the source and are kept apart here.

The target in test [1] is T1, human recombinant butyrylcholinesterase (hBuChE; EC 3.1.1.8) (Homo sapiens, UniProt P06276).
T1 construct: purchased Sigma-Aldrich (Prague, Czech Republic)
Nature of the test: Cholinesterase inhibition in vitro assay (modified Ellman's method), BuChE. The note with it: pH 7.4, 37 °C, mean ± SEM, read-out: BChE (IC50 µM). The format is biochemical. The procedure: The AChE and BuChE inhibitory activity of the tested compounds was determined using a modified Ellman's method^31, 32.Human red-blood cell acetylcholinesterase (hAChE; EC 3.1.1.7), and human recombinant butyrylcholinesterase (hBuChE; EC 3.1.1.8), 5,5'-dithiobis(2-nitrobenzoic acid) (Ellman's reagent, DTNB), phosphate buffer (PB, pH 7.4), acetylthiocholine (ATC), and butyrylthiocholine (BTC), were purchased from Sigma-Aldrich (Prague, Czech Republic). Nunc polystyrene 96-well microplates with flat-bottom shape (ThermoFisher Scientific, USA) were used for the measurement and all the assay were carried out in 0.1 M KH2PO4/K2HPO4 buffer, pH 7.4. Enzyme solution was prepared at activity 2.0 units/mL in 2 mL aliquots. The assay mixture (100 µL) consisted of 40 µL of 0.1 M phosphate buffer (pH 7.4), 20 µL of 0.01 M DTNB, 10 µL of enzyme, and 20 µL of 0.01 M substrate (ATC iodide solution). Tested compounds were dissolved first in methanol (BIGI 23 in DMSO) and then further diluted by assay buffer to the final concentration. […]. […] Enzyme with the inhibitor was preincubated for 5 min in the assay mixture and then the reaction was started by addition of 20 µL of substrate (ATC for AChE, BTC for BuChE). The enzyme activity was determined by measuring the increase in absorbance at 412 nm at 37 °C at 2 min intervals using a Multi-mode microplate reader Synergy 2 (Vermont, USA). Each concentration was assayed in triplicate. The obtained data were used to compute the percentage inhibition (I; Equation 1): I = 1−(ΔAi)/(ΔA0) [%] [formula] ΔAi indicates the absorbance change provided by cholinesterase exposed to AChE inhibitors and ΔA0 indicates absorbance change caused by intact cholinesterase (phosphate buffer was used instead of AChE inhibitor solution). […] Calculations were performed using software Microsoft Excel (Redmont, WA, USA) and GraphPad Prism version 5.02 for Windows, GraphPad Software, San Diego, CA, USA.
A general note: In Ellman's method for cholinesterases, released thiocholine reacts with DTNB.

The test system of test [2] is voltage-gated Ca^2+ channels (VGCC). Nature of the test: Calcium channel antagonist assay (K+-evoked cytosolic Ca2+, Fluo-4). The class given is cell-based. The procedure:
The cytosolic Ca^2+ has been measured in SH-SY5Y cells. SH-SY5Y cells were maintained similarly to what was previously described^30. Free cytosolic Ca^2+ was measured using the fluorescent Ca^2+ indicator Fluo-4/AM (Fluo-4 acetomethoxyester). SH-SY5Y cells were seeded onto 96-well black plates at a density of 10^5 cells per well, achieving confluence after 48 h. Cells were washed with Krebs-Hepes solution (KH, in mM: 144 NaCl, 5.9 KCl, 1.2 MgCl2, 2 CaCl2, 11 D-glucose, 10 HEPES, pH 7.4). Cells were loaded with 10 µM Fluo-4/AM and 0.2% pluronic acid in KH and incubated for 45 min at 37 °C in the dark. Then, cells were washed twice with KH to remove the excess of probe. Tested compounds were incubated 10 min before K+ 70 mM was applied to evoke the increment of cytosolic Ca^2+. To normalize Fluo-4 signals, Triton X-100 (5%) and 1 M MnCl2 were applied to register both maximal and minimal fluorescence, respectively. The experiments were analyzed at excitation and emission wavelengths of 485 and 520 nm, respectively, and fluorescence was measured in a fluorescence microplate reader (FLUOstar Optima, BMG, Germany). Data were calculated as a percentage of Fmax - Fmin.
The blocking effect of the depolarization-induced Ca^2+ uptake was investigated in SH-SY5Y neuroblastoma cells stimulated with an extracellular concentration of K+ 70 mM, which induces the cell Ca^2+ levels elevation by opening voltage-gated Ca^2+ channels (VGCC), monitored with the Ca^2+-sensitive fluorescent dye Fluo-4. Nifedipine was used as positive standard.

A short description of test [3]: Oxygen Radical Absorbance Capacity (ORAC-FL) assay. The settings on record: Trolox equivalents (µmol of Trolox equivalent/µmol of compound). The procedure:
The radical scavenging capacity of the TFAHs was determined by the ORAC-FL method using fluorescein as a fluorescent probe^33,34. (±)-6-Hydroxy-2,5,7,8-tetramethylchromane-2-carboxylic acid (Trolox), fluorescein (FL) and 2,2'-azobis(amidinopropane) dihydrochloride (AAPH) were purchased from Sigma-Aldrich. A Varioskan Flash plate reader with built-in injectors (Thermo Scientific) was used. The reaction was carried out at 37 °C in 75 mM phosphate buffer (pH= 7.4), and the final volume reaction mixture was 200 µL. The tested compounds and Trolox standard were dissolved in DMSO to 10 mM and further diluted in 75 mM phosphate buffer (pH= 7.4). The final concentrations were 0.1-1 µM for the tested compounds and 1-8 µM for Trolox standard. The blank was composed of 120 µL of FL, 60 µL of AAPH and 20 µL of phosphate buffer (pH=7.4) and was added in each assay.
The net AUC corresponding to a sample was calculated as follows: Net AUC = AUCantioxidant −AUCblank . [formula]
Regression equations were calculated by plotting the net AUC against the antioxidant concentration. The ORAC value was obtained by dividing the slope of the latter curve between the slope of the Trolox curve obtained in the same assay. Final ORAC values were expressed as µmol of Trolox equivalent/µmol of TFAH.

The target of test [4] is T2, Human red-blood cell acetylcholinesterase (hAChE; EC 3.1.1.7) (Homo sapiens, UniProt P22303).
T2 construct: Human red-blood cell acetylcholinesterase; purchased Sigma-Aldrich (Prague, Czech Republic); host or cells: human red blood cells
T2 sequence (P22303 32-617 isoform P22303-2 limits assumed): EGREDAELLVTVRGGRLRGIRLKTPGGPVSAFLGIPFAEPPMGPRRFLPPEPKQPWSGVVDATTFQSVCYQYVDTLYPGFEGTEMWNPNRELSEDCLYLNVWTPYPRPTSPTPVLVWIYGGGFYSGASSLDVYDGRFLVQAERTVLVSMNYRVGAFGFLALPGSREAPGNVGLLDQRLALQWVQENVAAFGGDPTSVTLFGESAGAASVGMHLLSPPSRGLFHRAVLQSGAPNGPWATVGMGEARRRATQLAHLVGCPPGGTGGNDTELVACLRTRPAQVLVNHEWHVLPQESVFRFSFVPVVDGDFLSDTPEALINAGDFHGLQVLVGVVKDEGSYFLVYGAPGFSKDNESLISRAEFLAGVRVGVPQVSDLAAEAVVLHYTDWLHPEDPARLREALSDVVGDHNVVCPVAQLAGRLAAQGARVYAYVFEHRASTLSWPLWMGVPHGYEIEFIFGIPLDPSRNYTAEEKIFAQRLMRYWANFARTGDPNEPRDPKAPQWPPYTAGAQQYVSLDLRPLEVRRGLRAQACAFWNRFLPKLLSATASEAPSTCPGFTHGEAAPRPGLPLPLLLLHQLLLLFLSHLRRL
Nature of the test: biochemical. The settings on record: pH 7.4, 37 °C, mean ± SEM, read-out: AChE (IC50 µM). How it is done:
The AChE and BuChE inhibitory activity of the tested compounds was determined using a modified Ellman's method^31, 32.Human red-blood cell acetylcholinesterase (hAChE; EC 3.1.1.7), and human recombinant butyrylcholinesterase (hBuChE; EC 3.1.1.8), 5,5'-dithiobis(2-nitrobenzoic acid) (Ellman's reagent, DTNB), phosphate buffer (PB, pH 7.4), acetylthiocholine (ATC), and butyrylthiocholine (BTC), were purchased from Sigma-Aldrich (Prague, Czech Republic). Nunc polystyrene 96-well microplates with flat-bottom shape (ThermoFisher Scientific, USA) were used for the measurement and all the assay were carried out in 0.1 M KH2PO4/K2HPO4 buffer, pH 7.4. Enzyme solution was prepared at activity 2.0 units/mL in 2 mL aliquots. The assay mixture (100 µL) consisted of 40 µL of 0.1 M phosphate buffer (pH 7.4), 20 µL of 0.01 M DTNB, 10 µL of enzyme, and 20 µL of 0.01 M substrate (ATC iodide solution). Tested compounds were dissolved first in methanol (BIGI 23 in DMSO) and then further diluted by assay buffer to the final concentration. […] Enzyme with the inhibitor was preincubated for 5 min in the assay mixture and then the reaction was started by addition of 20 µL of substrate (ATC for AChE, BTC for BuChE). […] Each concentration was assayed in triplicate. The obtained data were used to compute the percentage inhibition (I; Equation 1): I = 1−(ΔAi)/(ΔA0) [%] [formula] ΔAi indicates the absorbance change provided by cholinesterase exposed to AChE inhibitors and ΔA0 indicates absorbance change caused by intact cholinesterase (phosphate buffer was used instead of AChE inhibitor solution).

Setting [5] is: SH-SY5Y cells, K+ 70 mM, mean ± SEM, read-out: IC50 (µM) Calcium channels blockade.

T1 sequence (P06276 29-602): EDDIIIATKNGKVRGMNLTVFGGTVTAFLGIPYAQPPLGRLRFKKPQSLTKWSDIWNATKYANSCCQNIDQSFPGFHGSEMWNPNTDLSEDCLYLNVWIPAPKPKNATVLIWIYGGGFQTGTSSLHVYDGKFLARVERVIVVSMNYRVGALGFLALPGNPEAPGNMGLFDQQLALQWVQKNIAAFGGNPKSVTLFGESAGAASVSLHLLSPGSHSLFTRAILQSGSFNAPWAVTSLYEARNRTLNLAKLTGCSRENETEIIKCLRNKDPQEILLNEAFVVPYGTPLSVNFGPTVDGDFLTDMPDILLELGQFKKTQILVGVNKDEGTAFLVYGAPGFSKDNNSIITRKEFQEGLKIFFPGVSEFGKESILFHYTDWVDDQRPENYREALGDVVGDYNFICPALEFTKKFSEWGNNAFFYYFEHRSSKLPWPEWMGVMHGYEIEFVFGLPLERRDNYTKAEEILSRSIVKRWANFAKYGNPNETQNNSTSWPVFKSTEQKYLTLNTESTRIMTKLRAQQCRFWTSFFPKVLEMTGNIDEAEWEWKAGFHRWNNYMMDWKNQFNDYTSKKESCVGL

The term IC50 denotes the concentration needed to halve the response being measured. For `CCOC(=O)C1=C(C)N(CC2CCN(Cc3ccccc3)CC2)C(=O)NC1c1coc2ccccc2c1=O` (stereo not drawn) [BIGI-3a, ethyl 1-((1-benzylpiperidin-4-yl)methyl)-6-methyl-2-oxo-4-(4-oxo-4H-chromen-3-yl)-1,2,3,4-tetrahydropyrimidine-5-carboxylate], the IC50 in test [1] worked out at 14.8 ± 0.7 µM; in test [2] (setting [5]), 14 ± 3 µM. For the same compound, the ORAC in test [3] stood at 3.29 ± 0.07 TE.
With `CCOC(=O)C1=C(C)N(CC2CCN(Cc3ccccc3)CC2)C(=O)NC1c1coc2ccc(Br)cc2c1=O` (stereo not drawn) [BIGI-3b, ethyl 1-((1-benzylpiperidin-4-yl)methyl)-4-(6-bromo-4-oxo-4H-chromen-3-yl)-6-methyl-2-oxo-1,2,3,4-tetrahydropyrimidine-5-carboxylate], in test [2] (setting [5]), the IC50 was 6 ± 3 µM. Besides, the ORAC in test [3] was found to be 2.06 ± 0.17 TE.
For `CCOC(=O)C1=C(C)N(CC2CCN(Cc3ccccc3)CC2)C(=O)NC1c1coc2cc(CC)ccc2c1=O` (stereo not drawn) [BIGI-3c, ethyl 1-((1-benzylpiperidin-4-yl)methyl)-4-(7-ethyl-4-oxo-4H-chromen-3-yl)-6-methyl-2-oxo-1,2,3,4-tetrahydropyrimidine-5-carboxylate], the IC50 in test [1] amounted to 36.1 ± 3.1 µM; in test [2] (setting [5]), 3 ± 0.9 µM; in test [4], 6.08 ± 0.38 µM. The ORAC in test [3] is 3.51 ± 0.09 TE.
Turning to `CCOC(=O)C1=C(C)N(CCC2CCN(Cc3ccccc3)CC2)C(=O)NC1c1coc2ccccc2c1=O` (stereo not drawn) [BIGI-3d, ethyl 1-(2-(1-benzylpiperidin-4-yl)ethyl)-6-methyl-2-oxo-4-(4-oxo-4H-chromen-3-yl)-1,2,3,4-tetrahydropyrimidine-5-carboxylate], the IC50 in test [1] turned out to be 6.58 ± 0.34 µM; in test [2] (setting [5]) it was 9 ± 2 µM; in test [4] it was 0.23 ± 0.01 µM. Further, the ORAC in test [3] is given as 2.53 ± 0.17 TE.
On to `CCOC(=O)C1=C(C)N(CCC2CCN(Cc3ccccc3)CC2)C(=O)NC1c1coc2cc(CC)ccc2c1=O` (stereo not drawn) [BIGI-3f, ethyl 1-(2-(1-benzylpiperidin-4-yl)ethyl)-4-(7-ethyl-4-oxo-4H-chromen-3-yl)-6-methyl-2-oxo-1,2,3,4-tetrahydropyrimidine-5-carboxylate], for which the IC50 was determined as 5.96 ± 0.22 µM in test [1], 2.2 ± 0.6 µM in test [2] (setting [5]) and 0.3 ± 0.01 µM in test [4]. Further, the ORAC in test [3] is 2.20 ± 0.05 TE.
`CCOC(=O)C1=C(C)N(CCC2CCN(Cc3ccccc3)CC2)C(=O)NC1c1coc2cc(C)c(Cl)cc2c1=O` (stereo not drawn) [BIGI-3g, ethyl 1-(2-(1-benzylpiperidin-4-yl)ethyl)-4-(6-chloro-7-methyl-4-oxo-4H-chromen-3-yl)-6-methyl-2-oxo-1,2,3,4-tetrahydropyrimidine-5-carboxylate]: the IC50 in test [1] was found to be 15.7 ± 0.9 µM; in test [2] (setting [5]) it was 1.7 ± 0.6 µM; in test [4], 0.29 ± 0.01 µM. Moreover, the ORAC in test [3] is given as 2.56 ± 0.13 TE.
The like results for `CCOC(=O)C1=C(C)N(CCCC2CCN(Cc3ccccc3)CC2)C(=O)NC1c1coc2ccccc2c1=O` (stereo not drawn) [BIGI-3i, ethyl 1-(3-(1-benzylpiperidin-4-yl)propyl)-6-methyl-2-oxo-4-(4-oxo-4H-chromen-3-yl)-1,2,3,4-tetrahydropyrimidine-5-carboxylate] were, in that order, 4.29 ± 0.09 µM, 8 ± 1 µM, 0.15 µM and 3.09 ± 0.07 TE.
In the case of `CCOC(=O)C1=C(C)N(CCCC2CCN(Cc3ccccc3)CC2)C(=O)NC1c1coc2ccc(Br)cc2c1=O` (stereo not drawn) [BIGI-3j, ethyl 1-(3-(1-benzylpiperidin-4-yl)propyl)-4-(6-bromo-4-oxo-4H-chromen-3-yl)-6-methyl-2-oxo-1,2,3,4-tetrahydropyrimidine-5-carboxylate], the IC50 in test [1] was determined as 6.51 ± 0.45 µM; in test [2] (setting [5]) it was 3.8 ± 0.1 µM; in test [4], 0.18 ± 0.01 µM. In addition, in test [3], the ORAC was found to be 3.24 ± 0.02 TE.
Consider `CCOC(=O)C1=C(C)N(CCCC2CCN(Cc3ccccc3)CC2)C(=O)NC1c1coc2cc(C)c(Cl)cc2c1=O` (stereo not drawn) [BIGI-3l, ethyl 1-(3-(1-benzylpiperidin-4-yl)propyl)-4-(6-chloro-7-methyl-4-oxo-4H-chromen-3-yl)-6-methyl-2-oxo-1,2,3,4-tetrahydropyrimidine-5-carboxylate], for which the IC50 in test [1] came out at 6.26 ± 0.31 µM; in test [2] (setting [5]), 3.2 ± 0.2 µM; in test [4] it was 0.17 ± 0.01 µM. The ORAC in test [3] came to 1.68 ± 0.18 TE.
On to `CCOC(=O)C1=C(C)N(CCCC2CCN(Cc3ccccc3)CC2)C(=O)NC1c1coc2c(Cl)cc(Cl)cc2c1=O` (stereo not drawn) [BIGI-3m, ethyl 1-(3-(1-benzylpiperidin-4-yl)propyl)-4-(6,8-dichloro-4-oxo-4H-chromen-3-yl)-6-methyl-2-oxo-1,2,3,4-tetrahydropyrimidine-5-carboxylate], for which the IC50 was found to be 14.4 ± 1.2 µM in test [1], 5 ± 2 µM in test [2] (setting [5]) and 0.34 ± 0.02 µM in test [4]. Besides, in test [3], the ORAC is on record as 3.29± 0.10 TE.
Consider `COc1cc(/C=C/C(=O)O)ccc1O` [Ferulic acid, reference compound], for which the ORAC in test [3] was 3.7 TE and 3.7 ± 0.2 TE.
With `COC(=O)C1=C(C)NC(C)=C(C(=O)OC)C1c1ccccc1[N+](=O)[O-]` [Nifedipine, reference compound], the IC50 in test [2] (read-out: IC50 (µM) Calcium channels blockade, SH-SY5Y cells, K+ 70 mM, mean ± SEM) turned out to be 6.2 ± 0.2 µM.
